Data on 16 compounds can be found in PubChem BioAssay (NCI).

Test systems include COLO 205 colon; SK-OV-3 ovarian; RPMI-8226 leukemia; SK-MEL-5 melanoma; CAKI-1 renal; RXF 393 renal; MDA-MB-231 breast; HOP-62 NSCLC; MCF7 breast; K-562 leukemia.
Assay in all cases: NCI tumour cell line growth inhibition, 48 h

Where “and” joins values, the source holds several entries; their conditions need not be identical. Equal values may be shown once.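 In this assay, cells in 96-well plates receive the compound at five concentrations for 48 hours. Endpoints are linearly interpolated between the surrounding concentrations. Abbreviation: GI50, concentration required for 50% inhibition of growth. At the TGI there is no net growth.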

On to `CC#CC(=O)N1CC[C@@H](n2c(=O)n(-c3ccc(Oc4ccccc4)cc3)c3c(N)ncnc32)C1`, for which the GI50 in the test with COLO 205 colon was 36.6 µM; in the test on SK-OV-3 ovarian, 40.6 µM; in the test with RPMI-8226 leukemia it was 14.7 µM; with SK-MEL-5 melanoma, 16.9 µM; in the test on CAKI-1 renal, 13.8 µM; with RXF 393 renal, 37.3 µM. Further, the GI50 in the test with MDA-MB-231 breast is 19.5 µM; in the test on HOP-62 NSCLC it was 33.5 µM; in the test on MCF7 breast, 23.5 µM. In addition, the TGI in the test with COLO 205 colon is more than 100 µM; in the test with SK-OV-3 ovarian, more than 100 µM; in the test with RPMI-8226 leukemia it was 66.3 µM; in the test on SK-MEL-5 melanoma, 38.8 µM; with CAKI-1 renal, more than 100 µM; in the test with RXF 393 renal it was more than 100 µM. In addition, the TGI in the test with MDA-MB-231 breast is 72.6 µM; in the test with HOP-62 NSCLC it was more than 100 µM; with MCF7 breast it was more than 100 µM.

`Cn1sc2ccccc2c1=S`: the TGI is 26.2 µM with COLO 205 colon; more than 59.8 µM in the test with SK-OV-3 ovarian; 18.7 µM in the test on RPMI-8226 leukemia; 25.3 µM in the test on SK-MEL-5 melanoma; 16.9 µM with CAKI-1 renal; 7.95 µM in the test with RXF 393 renal. For the same compound, the TGI with HOP-62 NSCLC stood at 24.5 µM; with K-562 leukemia it was 26.1 µM; in the test with MCF7 breast, 7.36 µM.

As for `CCCCCCNCCCNc1c2ccccc2nc2cccc([N+](=O)[O-])c12`, the TGI in the test on COLO 205 colon was 0.0149 µM and 0.0415 µM; in the test with SK-OV-3 ovarian it was 0.278 µM and 0.39 µM; with SK-MEL-5 melanoma, 0.0258 µM and 0.0243 µM; with CAKI-1 renal it was 0.271 µM; with RXF 393 renal, 0.0312 µM; in the test with MDA-MB-231 breast, 0.0933 µM and 0.221 µM. In addition, the TGI in the test on HOP-62 NSCLC is 0.0773 µM and 0.0374 µM; in the test on K-562 leukemia, 0.0212 µM; with MCF7 breast, 0.112 µM and 0.103 µM. For the same compound, the GI50 with MDA-MB-231 breast was 0.0151 µM.

In the case of `O=C(O)c1ccccc1Nc1ccc2nnc(-c3ccncc3)n2n1`, the GI50 is 13 µM in the test with COLO 205 colon; 22 µM in the test on SK-OV-3 ovarian; 3.92 µM in the test on SK-MEL-5 melanoma; 3.22 µM in the test on CAKI-1 renal; 3.18 µM in the test with RXF 393 renal; 5.27 µM in the test with MDA-MB-231 breast. For the same compound, the GI50 in the test on HOP-62 NSCLC is 15.4 µM; in the test on K-562 leukemia, 15.1 µM; with MCF7 breast, 2.85 µM. For the same compound, the TGI was 30.8 µM with COLO 205 colon; more than 100 µM with SK-OV-3 ovarian; 14.8 µM in the test with SK-MEL-5 melanoma; 11.7 µM in the test with CAKI-1 renal; 9.98 µM in the test with RXF 393 renal; 24.2 µM in the test on MDA-MB-231 breast. Also, the TGI in the test on HOP-62 NSCLC was 33.5 µM; with K-562 leukemia, more than 100 µM; in the test with MCF7 breast it was 24.6 µM.

In the case of `Nc1ncnc2c1ncn2C1OC(COC2C(CO)OC(OC(C(=O)O)C(O)C(OP(=O)(O)O)C(O)C(=O)O)C(O)C2O)C(O)C1O` (stereo unspecified), the TGI with COLO 205 colon, with SK-OV-3 ovarian, in the test with RPMI-8226 leukemia, with SK-MEL-5 melanoma, with CAKI-1 renal and in the test on MDA-MB-231 breast was more than 100 µM throughout. Further, the TGI in the test on HOP-62 NSCLC, in the test on K-562 leukemia and with MCF7 breast was more than 100 µM each time.

Consider `CSC1(CC(=O)N2CCCCC2)C(=O)Nc2ccccc21` (stereo unspecified), for which the TGI in the test with COLO 205 colon, in the test with SK-OV-3 ovarian, in the test with RPMI-8226 leukemia, in the test on SK-MEL-5 melanoma, with HOP-62 NSCLC and in the test on K-562 leukemia was more than 100 µM in each case. Moreover, the TGI in the test on MCF7 breast was more than 100 µM.

Regarding `COc1cc2c3c(n(CCCN4CCCC(O)C4)c(=O)c2cc1OC)-c1cc2c(cc1C3=O)OCO2` (stereo unspecified), the GI50 in the test with COLO 205 colon was 2.51 µM; with SK-OV-3 ovarian, 3.8 µM; in the test on RPMI-8226 leukemia, 0.0961 µM; in the test on SK-MEL-5 melanoma, 0.318 µM; with CAKI-1 renal it was 0.00685 µM; in the test with MDA-MB-231 breast, 0.791 µM. The GI50 in the test with HOP-62 NSCLC was 0.0194 µM; in the test on K-562 leukemia, 0.0881 µM; with MCF7 breast, 0.0107 µM. Moreover, the TGI with COLO 205 colon stood at 6.33 µM; in the test on SK-OV-3 ovarian it was 27.2 µM; with RPMI-8226 leukemia, 0.447 µM; in the test on SK-MEL-5 melanoma it was 20.6 µM; with CAKI-1 renal, 1.36 µM; in the test with MDA-MB-231 breast, 1.62 µM. For the same compound, the TGI came out at 0.0746 µM in the test with HOP-62 NSCLC, 6.87 µM in the test with K-562 leukemia and 1.31 µM in the test on MCF7 breast.

For `Clc1ccc2c(NCCNc3nc(N4CCCC4)nc4ccccc34)ccnc2c1`, the GI50 with COLO 205 colon was 0.147 µM; in the test with SK-OV-3 ovarian, 1.71 µM; in the test with RPMI-8226 leukemia it was 1.76 µM; in the test with SK-MEL-5 melanoma, 1.64 µM; with RXF 393 renal, 1.23 µM; in the test with MDA-MB-231 breast, 0.811 µM. Moreover, the GI50 with HOP-62 NSCLC was 1.49 µM; in the test with K-562 leukemia, 0.118 µM; with MCF7 breast it was 0.156 µM. Also, the TGI with COLO 205 colon was found to be 1.94 µM; in the test with SK-OV-3 ovarian, 3.16 µM; in the test on RPMI-8226 leukemia, 4.96 µM; in the test on SK-MEL-5 melanoma it was 3.02 µM; in the test with RXF 393 renal, 2.63 µM; with MDA-MB-231 breast it was 2.24 µM. Further, the figures for the TGI in the test with HOP-62 NSCLC, with K-562 leukemia and in the test on MCF7 breast were 3.49 µM, 3.29 µM and 3.86 µM, respectively.

Consider `COc1ccc(C2c3c(-c4ccccc4)nn(-c4ccccc4)c3Oc3ncn4nc(CC#N)nc4c32)cc1OC` (stereo unspecified), for which the GI50 was more than 100 µM in the test on COLO 205 colon; > 100 µM and 20.9 µM in the test on RPMI-8226 leukemia; 9.03 µM and 1.77 µM in the test on MDA-MB-231 breast; 36.5 µM and 99.4 µM with MCF7 breast. Also, the TGI in the test with COLO 205 colon is more than 100 µM; with SK-OV-3 ovarian, > 100 µM and 17.9 µM; in the test on RPMI-8226 leukemia, more than 100 µM; in the test on SK-MEL-5 melanoma it was more than 100 µM; in the test with CAKI-1 renal, > 100 µM and 13.8 µM; with MDA-MB-231 breast, 22.8 µM and 4.68 µM. Moreover, the TGI with K-562 leukemia and with MCF7 breast was more than 100 µM each time.

For the compound `Cc1c(-c2nnc(-c3cc(Cl)c(Cl)cc3Cl)o2)nnn1-c1ccnc2c(C(F)(F)F)cccc12`, the GI50 in the test with COLO 205 colon was 17.4 µM; with SK-OV-3 ovarian it was 24.5 µM; in the test on RPMI-8226 leukemia it was 19.9 µM; in the test with SK-MEL-5 melanoma, 17.3 µM; in the test with CAKI-1 renal, 31.4 µM; in the test with MDA-MB-231 breast, 20.2 µM. Besides, the GI50 was 20.5 µM in the test on HOP-62 NSCLC, 33.1 µM with K-562 leukemia and 20.3 µM with MCF7 breast. Besides, the TGI in the test on COLO 205 colon is 33.2 µM; with SK-OV-3 ovarian, 61.1 µM; in the test with RPMI-8226 leukemia, 54.1 µM; with SK-MEL-5 melanoma, 32.5 µM; in the test on CAKI-1 renal it was 94.8 µM; with MDA-MB-231 breast it was 53.2 µM. Further, the TGI is 47.7 µM in the test with HOP-62 NSCLC, more than 100 µM with K-562 leukemia and 45.1 µM with MCF7 breast.

For the compound `CC(C)c1ccc2nc3ccc(C(=O)NCCN4CCN(c5ccccc5)CC4)cn3c(=O)c2c1`, the TGI in the test on COLO 205 colon is more than 100 µM; in the test with SK-OV-3 ovarian, more than 100 µM; in the test on SK-MEL-5 melanoma it was 7.81 µM; in the test with CAKI-1 renal it was more than 100 µM; in the test on MDA-MB-231 breast it was more than 100 µM; in the test on HOP-62 NSCLC, more than 100 µM. Moreover, the TGI with K-562 leukemia and in the test on MCF7 breast was more than 100 µM throughout.

Consider `CC1=CC(=O)c2ccc(C)cc2C1=O`, for which the TGI with COLO 205 colon is 31.1 µM; in the test with SK-OV-3 ovarian, 30.5 µM; with RPMI-8226 leukemia, 6.36 µM; in the test on SK-MEL-5 melanoma it was 15 µM; in the test on CAKI-1 renal, 14.9 µM; in the test on MDA-MB-231 breast, 24.2 µM. Further, the TGI is 32 µM in the test with HOP-62 NSCLC, more than 100 µM in the test with K-562 leukemia and 11.3 µM with MCF7 breast.

As for `COc1ccc2c(c1)C(=O)c1c-2c(NCCN(C)C)nc2ccccc12`, the GI50 in the test on COLO 205 colon was 4.51 µM; in the test on RPMI-8226 leukemia it was 1.21 µM; with SK-MEL-5 melanoma it was 6.47 µM; with CAKI-1 renal it was 0.373 µM; in the test with MDA-MB-231 breast, 6.59 µM; in the test with HOP-62 NSCLC, 14.3 µM. Also, the GI50 in the test on K-562 leukemia is 2.62 µM; in the test on MCF7 breast, 2 µM. For the same compound, the TGI stood at 19.3 µM with COLO 205 colon; 4.53 µM with RPMI-8226 leukemia; 19.7 µM with SK-MEL-5 melanoma; 2.48 µM in the test with CAKI-1 renal; 19.9 µM in the test with MDA-MB-231 breast; 27.4 µM in the test on HOP-62 NSCLC. Also, the TGI with K-562 leukemia came to 14.8 µM; in the test with MCF7 breast, 12.2 µM.

Consider `COc1ccc(C(c2cc3c(cc2O)OCO3)N2CCOCC2)cc1OC` (stereo unspecified), for which the TGI in the test with COLO 205 colon is 28.8 µM; with SK-OV-3 ovarian, 28.7 µM; with SK-MEL-5 melanoma, 26.3 µM; with CAKI-1 renal, 25.4 µM; with RXF 393 renal, 58.2 µM; in the test on MDA-MB-231 breast, 15.8 µM. Moreover, the TGI is 29.1 µM in the test with HOP-62 NSCLC, 69.4 µM with K-562 leukemia and more than 100 µM in the test with MCF7 breast.

As to `COc1ccc(C2CC(=O)c3c(O)c(OC)c(OC)c(OC)c3O2)cc1O` (stereo unspecified), the GI50 in the test on COLO 205 colon was 6.63 µM; in the test on SK-OV-3 ovarian, 0.371 µM; in the test with RPMI-8226 leukemia it was 0.286 µM; in the test on SK-MEL-5 melanoma, 0.219 µM; in the test with CAKI-1 renal, 0.43 µM; with MDA-MB-231 breast it was 0.625 µM. Further, the GI50 is 0.377 µM with HOP-62 NSCLC, 0.0365 µM with K-562 leukemia and 0.124 µM in the test on MCF7 breast. Further, the TGI was 32.5 µM in the test with COLO 205 colon; more than 100 µM in the test with SK-OV-3 ovarian; more than 77.5 µM with RPMI-8226 leukemia; 6.87 µM with SK-MEL-5 melanoma; more than 100 µM with CAKI-1 renal; more than 100 µM with MDA-MB-231 breast. Also, the TGI in the test on HOP-62 NSCLC, with K-562 leukemia and in the test with MCF7 breast was more than 100 µM throughout.

For `CCOC(=O)N1C=CC(=C2C(=C3C=CN(C(=O)OCC)C=C3)C(=C3C=CN(C(=O)OCC)C=C3)C2=C2C=CN(C(=O)OCC)C=C2)C=C1`, the TGI was more than 100 µM in the test on COLO 205 colon; more than 100 µM in the test on SK-OV-3 ovarian; more than 100 µM in the test with SK-MEL-5 melanoma; 50.6 µM in the test on CAKI-1 renal; more than 100 µM in the test on RXF 393 renal; 70.5 µM in the test on MDA-MB-231 breast. For the same compound, the TGI in the test on HOP-62 NSCLC was more than 100 µM; in the test on K-562 leukemia, 71.4 µM; with MCF7 breast, more than 100 µM.
